Results as given in patent publication US11427560B2, “Composition and methods for inhibiting mammalian sterile 20-like kinase 1” (The Scripps Research Institute, priority 2015, dated 2022).

Key:
beta cells = assay: Beta cell apoptosis with increasing neratinib concentrations (FIG. 3); format: cell-based; details: increasing concentrations of neratinib
human islets = assay: High glucose/palmitate induced apoptotic activity in human islets; details: high glucose and palmitate (HG/Pal), 25 μM neratinib, FIG. 8
From the text: Freshly isolated human islets from a single donor were exposed to high glucose and palmitate (HG/Pal) to induce apoptosis.

## CCOc1cc2ncc(C#N)c(Nc3ccc(OCc4ccccn4)c(Cl)c3)c2cc1NC(=O)/C=C/CN(C)C [neratinib]
Beta cells
  Beta cell apoptosis: decrease with exposure to increasing concentrations
Human islets
  MST1 phosphorylation (pMST1): inhibited
  induction of cleaved caspase 3 (Cl Casp3): inhibited
